Where two headings read alike, the source gives them in different places. Each block holds one molecule with its values, some of them ahead of it.
Key:
[1] = test system: Human breast cancer cell line (drug-resistant) MCF-7/A; experiment: Cytotoxicity experiment, SRB method, tumor cell proliferation; assay type: cell-based; conditions: 48 h, read-out: IC50 (umol/L) Breast cancer cell (drug-resistant) MCF-7/A
Protocol: (§1) Human breast cancer cell line (drug-resistant) MCF-7/A, human breast cancer cell line (sensitive) MCF-7/S, prostate cancer cell PC-3, keratinocyte Colo-16, human non-small cell lung cancer cell line A549 and etc. are cultured in RPMI1640 medium (Invitrogen, USA) containing 10 wt % fetal bovine serum (FBS, Hyclone, USA), and epidermal growth factor (EGF) at a concentration of 100 ng/ml is added to stimulate growth. After 2-3 days, cells in logarithmic growth phase are collected, and inoculated at 96 well plates (6500 cells/well/100 ul, RPMI1640 containing 100 ng/mL EGF) for 24 h, and then compound at gradient concentrations (200, 100, 50, 25, 12.5, 6.25, 1 μM/L) are added. The same volume of RPMI1640 containing 1 wt % of dimethyl sulfoxide (DMSO) is used as control group of the experiment; the blank group is only culture medium without cell. Three parallel wells are set up for each concentration group. After incubation is continued for 48 h, the cell survival rate is measured by SRB method. Results are shown in Table 2 and Table 3, respectively.
(§2) Wherein, for experiment on compound cytotoxicity assay by sulforhodamine B (SRB) method: Cells in the logarithmic growth phase are collected and inoculated at 96-well plates (6500 cells/well/100 ul, RPMI1640 containing 100 ng/ml of EGF). After incubation for 24 h, compounds at gradient concentrations (200, 100, 50, 25, 12.5, 6.25, 1 (μM/L)) are added. The same volume of RPMI1640 containing 100 ng/ml of EGF is used as control group of the experiment; the blank group is only culture medium without cell. Three parallel wells are set up for each concentration group. After incubation is continued for 48 h, the cell survival rate is measured by SRB method. 50 μl 10% trichloroacetic acid (TCA) pre-cooled (4° C.) is added to each well, it is fixed for 1 hour at 4° C., washed with water for five times, and completely dried, and then 100 μl of SRB solution (Sigma, USA) at concentration of 0.4% by weight is added, and staining is performed at 37° C. in the dark for 30 min. Wash with acetic acid at a concentration of 1% by weight for 4-5 times, dry in the air, add 200 μl of Tris solution (10 mM, pH 10.5), after sufficiently dissolved, the absorbance (absorption wavelength is 570 nm) is measured in microplate reader.
(§3) The growth inhibition rate (IR) is calculated according to the following formula: IR (%)=[1−(experiment group A value−blank group A value)/(control group A value−blank group A value)]×100%, and the IC50 value is calculated using Origin 6.0 software.

[2] = test system: human breast cancer cell line (sensitive) MCF-7/S; experiment: as above; assay type: cell-based; conditions: 48 h, read-out: IC50 (umol/L) Breast cancer cell (sensitive) MCF-7/S
Protocol: as §1, §2, §3

[3] = test system: human non-small cell lung cancer cell line A549; experiment: as above; assay type: cell-based; conditions: A549, 48 h, read-out: IC50 (μmol/L) Non-small cell lung cancer cell A549
Protocol: as §1, §2, §3

keratinocyte Colo-16 = experiment: as above; assay type: cell-based; conditions: read-out: IC50 (μmol/L) Keratinocyte Colo-16
Protocol: as §1, §2, §3

[4] = test system: prostate cancer cell PC-3; experiment: as above; assay type: cell-based; conditions: read-out: IC50 (μmol/L) Prostate cancer cell PC-3
Protocol: as §1, §2, §3

[5] = test system: human breast cancer cell line (sensitive) MCF-7/S + EGF; experiment: Cytotoxicity experiment under the condition of additional EGF, SRB method; assay type: cell-based
Protocol: Human breast cancer cell line (sensitive) MCF-7/S and human non-small cell lung cancer cell line A549 are cultured in HAM′S/F-12 medium (HyClone, USA) containing 10 wt % fetal bovine serum (FBS, Hyclone, USA), and 100 ng/ml epidermal growth factor (EGF, Sigma, USA) is added to this medium. Cells described above were purchased from Cell Resource Center, Shanghai Institute for Biological Science, CAS, they are placed in a CO2 incubator and used for the experiment 3-5 days later.
as §2, §3

[6] = Stability (physicochemical properties, Table 1); conditions: for Stability (photostability): light
[7] = Solubility (physicochemical properties, Table 1); conditions: room temperature, atmospheric pressure
[8] = target: T1, EGFR (Epidermal Growth Factor Receptor) (Homo sapiens, UniProt P00533); experiment: Enzyme-linked immunosorbent assay (ELISA), kinase inhibitory activity (phosphorylation of PTP1B(Tyr66) biotinylated peptide substrate); assay type: biochemical; conditions: average of two independent parallel experiments
T1 construct: purchased CST
T1 sequence (P00533 25-1210): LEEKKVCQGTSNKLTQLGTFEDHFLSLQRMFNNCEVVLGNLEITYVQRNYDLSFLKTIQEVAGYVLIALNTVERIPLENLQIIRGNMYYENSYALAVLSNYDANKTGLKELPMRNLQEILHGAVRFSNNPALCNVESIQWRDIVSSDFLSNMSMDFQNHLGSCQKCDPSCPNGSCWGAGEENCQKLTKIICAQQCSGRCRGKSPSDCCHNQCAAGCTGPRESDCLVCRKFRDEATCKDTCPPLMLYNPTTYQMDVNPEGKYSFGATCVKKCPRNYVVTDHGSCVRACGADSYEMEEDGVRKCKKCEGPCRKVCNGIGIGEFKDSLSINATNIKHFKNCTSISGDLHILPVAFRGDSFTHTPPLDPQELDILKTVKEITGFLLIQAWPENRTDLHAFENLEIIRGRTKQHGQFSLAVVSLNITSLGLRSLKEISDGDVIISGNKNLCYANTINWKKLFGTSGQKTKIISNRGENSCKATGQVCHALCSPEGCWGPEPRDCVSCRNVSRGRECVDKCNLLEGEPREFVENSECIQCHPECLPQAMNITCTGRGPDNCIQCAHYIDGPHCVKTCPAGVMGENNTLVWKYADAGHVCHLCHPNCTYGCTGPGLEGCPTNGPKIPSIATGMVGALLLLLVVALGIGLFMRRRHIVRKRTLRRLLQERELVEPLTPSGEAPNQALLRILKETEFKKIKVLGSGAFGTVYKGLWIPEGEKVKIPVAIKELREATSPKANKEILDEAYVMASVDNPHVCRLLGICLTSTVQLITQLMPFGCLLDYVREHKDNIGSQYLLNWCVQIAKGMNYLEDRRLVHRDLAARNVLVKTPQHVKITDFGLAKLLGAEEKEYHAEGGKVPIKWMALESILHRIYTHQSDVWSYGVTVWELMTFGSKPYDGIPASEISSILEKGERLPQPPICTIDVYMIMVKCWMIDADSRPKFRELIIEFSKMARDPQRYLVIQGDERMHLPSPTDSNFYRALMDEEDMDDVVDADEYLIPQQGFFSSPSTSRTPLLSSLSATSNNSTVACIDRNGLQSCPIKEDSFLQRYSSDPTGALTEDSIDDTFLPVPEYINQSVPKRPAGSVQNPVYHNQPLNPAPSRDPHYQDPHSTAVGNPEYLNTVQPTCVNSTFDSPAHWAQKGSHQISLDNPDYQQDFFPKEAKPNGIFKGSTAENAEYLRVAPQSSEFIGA
Text: Protein kinase assay kit: PTP1B(Tyr66) Biotinylated Peptide from CST company is used as a substrate of kinase EGFR (Epidermal Growth Factor Receptor).

[9] = Homo sapiens, MCF7S, MCF-7/S with additional EGF 100 ng/ml, 48 h, SRB, read-out: IC50 (umol/L) Breast cancer cell (sensitive) MCF-7/S + EGF
[10] = Keratinocyte, Colo-16, 48 h, SRB
[11] = MCF-7/S with additional EGF 100 ng/ml, 48 h, SRB, read-out: IC50 (umol/L) Breast cancer cell (sensitive) MCF-7/S + EGF

SMILES: COc1cc2ncnc(Nc3ccc(F)c(Cl)c3)c2cc1OCCn1ccnc1 [JLY1002]
IC50 ([1]; Homo sapiens, MCF7a): > 100 µmol/L
IC50 ([2]; Homo sapiens, MCF7S): > 100 µmol/L
IC50 ([3]; Homo sapiens): 48.2 ± 0.51 µmol/L
IC50 (keratinocyte Colo-16; Keratinocyte, 48 h): > 100 µmol/L
IC50 ([4]; 48 h): > 100 µmol/L
IC50 [5, 9]: > 100 µmol/L
Stability (in air) [6]: Stable in air,
Stability (photostability) [6]: photostable
Solubility in DMSO [7]: Highly soluble in DMSO
Solubility in methanol and ethanol [7]: soluble in water, soluble in methanol
Solubility in water [7]: slightly

SMILES: COc1cc2ncnc(Nc3ccc(F)c(Cl)c3)c2cc1OCC[N]1CC[NH][Ru]1([Cl])([Cl])([Cl])[SH](C)(C)=O [JLY2007]
IC50 [8]: 0.0075 µM
Stability (in air) [6]: Stable in air,
Stability (photostability) [6]: photostable
Solubility in DMSO [7]: Highly soluble in DMSO
Solubility in methanol and ethanol [7]: soluble in water, soluble in methanol
Solubility in water [7]: slightly

Stability (in air) [6]: Stable in air,
Stability (photostability) [6]: photostable
Solubility in DMSO [7]: Highly soluble in DMSO
Solubility in methanol and ethanol [7]: soluble in water, soluble in methanol
Solubility in water [7]: slightly
SMILES: COc1cc2ncnc(Nc3ccc(F)c(Cl)c3)c2cc1OC [LQ1001, reference compound]
IC50 ([1]; Homo sapiens, MCF7a): > 100 µmol/L
IC50 ([2]; Homo sapiens, MCF7S): > 100 µmol/L
IC50 ([3]; Homo sapiens): > 100 µmol/L
IC50 (keratinocyte Colo-16; [10]): 88.2 ± 3.98 µmol/L
IC50 ([4]; PC-3, 48 h, SRB): > 100 µmol/L
IC50 [5, 9]: 53.3 ± 3.12 µmol/L

SMILES: Cl.[Cl-].[Cl-].[Cl-].[Ru+3].c1c[nH]cn1.c1c[nH]cn1 [NAMI-A, reference compound]
IC50 [1]: > 100 µmol/L
IC50 [2]: > 100 µmol/L
IC50 (keratinocyte Colo-16; Colo-16, 48 h, SRB): > 100 µmol/L
IC50 ([4]; PC-3, 48 h, SRB): > 100 µmol/L
IC50 [5, 11]: > 100 µmol/L

SMILES: Cc1ccc(C(C)C)cc1.F[P-](F)(F)(F)(F)F.[Cl][Ru-]1[NH2+]CC[NH2+]1 [Pcy-Ru, reference compound]
IC50 [1]: > 100 µmol/L
IC50 [2]: 13 ± 3.37 µmol/L
IC50 [3]: 17.3 ± 0.76 µmol/L
IC50 (keratinocyte Colo-16; Colo-16, 48 h, SRB): 14.3 ± 1.5 µmol/L
IC50 ([4]; PC-3, 48 h, SRB): > 100 µmol/L
IC50 [5, 11]: 21.8 ± 1.73 µmol/L

SMILES: CC(=O)O[C@H]1C(=O)[C@@]2(C)[C@H]([C@H](OC(=O)c3ccccc3)[C@]3(O)C[C@H](OC(=O)[C@H](O)[C@@H](NC(=O)c4ccccc4)c4ccccc4)C(C)=C1C3(C)C)[C@]1(OC(C)=O)CO[C@@H]1C[C@@H]2O [Taxol, reference compound]
IC50 ([1]; Homo sapiens, MCF7a): 0.44 ± 0.5 µmol/L
IC50 ([3]; Homo sapiens): 4.07 ± 1.63 µmol/L
IC50 (keratinocyte Colo-16; [10]): 1.06 ± 0.31 µmol/L
IC50 ([4]; PC-3, 48 h, SRB): 0.74 ± 0.18 µmol/L
IC50 [5, 9]: 0.029 µmol/L

IC50 [8]: 0.0046 µM
Stability (in air) [6]: Stable in air,
Stability (photostability) [6]: photostable
Solubility in DMSO [7]: Highly soluble in DMSO
Solubility in methanol and ethanol [7]: soluble in water, soluble in methanol
Solubility in water [7]: slightly
SMILES: COc1cc2ncnc(Nc3ccc(F)c(Cl)c3)c2cc1OCCNCCN [ZW1001, 6-(2-(2-aminoethylamino)ethoxy)-4-(3-Chloro-4-fluoro-phenylamino)-7-methoxy quinazoline]
IC50 ([1]; Homo sapiens, MCF7a): > 100 µmol/L
IC50 ([2]; Homo sapiens, MCF7S): 38.34 ± 0.1 µmol/L
IC50 ([3]; Homo sapiens): 51 ± 1.02 µmol/L
IC50 (keratinocyte Colo-16; [10]): > 100 µmol/L
IC50 ([4]; PC-3, 48 h, SRB): 38.4 ± 2.36 µmol/L
IC50 [5, 9]: 36.3 ± 5.77 µmol/L

IC50 [8]: 0.018 µM
Stability (in air) [6]: Stable in air,
Stability (photostability) [6]: photostable
Solubility in DMSO [7]: Highly soluble in DMSO
Solubility in methanol and ethanol [7]: soluble in water, soluble in methanol
Solubility in water [7]: slightly
SMILES: COc1cc2ncnc(Nc3ccc(F)c(Cl)c3)c2cc1OCCBr [ZW1001-M, 4-(3′-chloro-4′-fluoro-phenylamino)-6-(2-bromo-ethoxy)-7-methoxy quinazoline]

IC50 [8]: 0.0072 µM
Stability (in air) [6]: Stable in air,
Stability (photostability) [6]: photostable
Solubility in DMSO [7]: Highly soluble in DMSO
Solubility in methanol and ethanol [7]: soluble in water, soluble in methanol
Solubility in water [7]: slightly
SMILES: COc1cc2ncnc(Nc3ccc(F)c(Cl)c3)c2cc1OCCCNCCN [ZW1002, 6-(3-(2-aminoethylamino)propoxy)-4-(3-Chloro-4-fluoro-phenylamino)-7-methoxy quinazoline]
IC50 ([1]; Homo sapiens, MCF7a): > 100 µmol/L
IC50 ([2]; Homo sapiens, MCF7S): 16.4 ± 0.62 µmol/L
IC50 ([3]; Homo sapiens): 57.4 ± 1.98 µmol/L
IC50 (keratinocyte Colo-16; [10]): 14.5 ± 0.37 µmol/L
IC50 ([4]; PC-3, 48 h, SRB): 13.6 ± 0.85 µmol/L
IC50 [5, 9]: 15.9 ± 1.15 µmol/L

SMILES: COc1cc2ncnc(Nc3ccc(F)c(Cl)c3)c2cc1OCC[N]1CC[NH][Ru+]1([Cl])[c]1ccccc1.F[P-](F)(F)(F)(F)F (stereo not drawn) [ZW2002]
IC50 [8]: 0.0938 µM
IC50 [1]: > 100 µmol/L
IC50 [2]: > 100 µmol/L
IC50 [3]: > 100 µmol/L
IC50 (keratinocyte Colo-16; Colo-16, 48 h, SRB): 42.1 ± 2.55 µmol/L
IC50 ([4]; PC-3, 48 h, SRB): > 100 µmol/L
IC50 [5, 11]: > 100 µmol/L
Stability (in air) [6]: Stable in air,
Stability (photostability) [6]: photostable

SMILES: COc1cc2ncnc(Nc3ccc(F)c(Cl)c3)c2cc1OCCC[N]1CC[NH][Ru+]1([Cl])[c]1cc(C(C)C)ccc1C.F[P-](F)(F)(F)(F)F (stereo not drawn) [ZW2004]
IC50 [8]: 0.106 µM
IC50 [1]: > 100 µmol/L
IC50 [2]: 86.8 ± 6.66 µmol/L
IC50 (keratinocyte Colo-16; Colo-16, 48 h, SRB): 58.2 ± 1.49 µmol/L
IC50 ([4]; PC-3, 48 h, SRB): 79.9 ± 7.44 µmol/L
IC50 [5, 11]: 33.9 ± 1.39 µmol/L
IC50 ([5]; MCF-7/S+EGF, read-out: IC50 under the test condition of MCF-7/S+EGF inhibiting the proliferation of tumor cells): 33.9 µmol/L
IC50 ([5]; MCF-7/S+EGF, read-out: IC50 under the test conditions of MCF-7/S+EGF inhibiting tumor cell proliferation): 33.9 µmol/L
Stability (in air) [6]: Stable in air,
Stability (photostability) [6]: photostable
Solubility in DMSO [7]: Highly soluble in DMSO
Solubility in methanol and ethanol [7]: soluble in water, soluble in methanol
Solubility in water [7]: slightly

SMILES: COc1cc2ncnc(Nc3ccc(F)c(Cl)c3)c2cc1OCCC[N]1CC[NH][Ru+]1([Cl])[c]1ccccc1.F[P-](F)(F)(F)(F)F (stereo not drawn) [ZW2005]
IC50 [8]: 0.174 µM
IC50 [1]: > 100 µmol/L
IC50 [2]: > 100 µmol/L
IC50 [3]: 45.1 ± 2.34 µmol/L
IC50 (keratinocyte Colo-16; Colo-16, 48 h, SRB): 39.8 ± 4.85 µmol/L
IC50 ([4]; PC-3, 48 h, SRB): 38.3 ± 3.56 µmol/L
IC50 [5, 11]: 17.4 ± 1.09 µmol/L
Stability (in air) [6]: Stable in air,
Stability (photostability) [6]: photostable

SMILES: COc1cc2ncnc(Nc3ccc(F)c(Cl)c3)c2cc1OCC[NH+]1CC[NH2+][Pt-2]1([Cl])[Cl] (stereo not drawn) [ZY-1]
IC50 [8]: 0.0028 µM
Stability (in air) [6]: Stable in air,
Stability (photostability) [6]: photostable
Solubility in DMSO [7]: Highly soluble in DMSO
Solubility in methanol and ethanol [7]: soluble in water, soluble in methanol
Solubility in water [7]: slightly

SMILES: COc1cc2ncnc(Nc3ccc(F)c(Cl)c3)c2cc1OCCC[NH+]1CC[NH2+][Pt-2]1([Cl])[Cl] (stereo not drawn) [ZY-2]
IC50 [8]: 0.017 µM
Stability (in air) [6]: Stable in air,
Stability (photostability) [6]: photostable
Solubility in DMSO [7]: Highly soluble in DMSO
Solubility in methanol and ethanol [7]: soluble in water, soluble in methanol
Solubility in water [7]: slightly
